The nature of data set [1]: Protein binding in plasma (unknown origin). Type of data set: ADME, cell-free. Conditions: read-out: PPB (converted).
For data set [2], the system named is Escherichia coli. The data set can be described thus: Antibacterial activity against Escherichia coli ATCC 25922 assessed as inhibition of bacterial growth incubated for 24 hrs in absence of HSA by broth microdilution method. Type of data set: functional. On the technique in general: Broth dilution looks for growth in wells or tubes with falling amounts of substance.

The test system of data set [3] is Escherichia coli. The data set can be described thus: Antibacterial activity against Escherichia coli ATCC 25922 assessed as inhibition of bacterial growth incubated for 24 hrs in presence of HSA by broth microdilution method. The format is functional.
The target in data set [4] is T1, Albumin (Homo sapiens, UniProt P02768). The data set can be described thus: Binding affinity to human serum albumin incubated for 18 hrs by equilibrium dialysis method. Type of data set: ADME. Conditions: isolated protein.
T1 sequence (P02768 whole entry): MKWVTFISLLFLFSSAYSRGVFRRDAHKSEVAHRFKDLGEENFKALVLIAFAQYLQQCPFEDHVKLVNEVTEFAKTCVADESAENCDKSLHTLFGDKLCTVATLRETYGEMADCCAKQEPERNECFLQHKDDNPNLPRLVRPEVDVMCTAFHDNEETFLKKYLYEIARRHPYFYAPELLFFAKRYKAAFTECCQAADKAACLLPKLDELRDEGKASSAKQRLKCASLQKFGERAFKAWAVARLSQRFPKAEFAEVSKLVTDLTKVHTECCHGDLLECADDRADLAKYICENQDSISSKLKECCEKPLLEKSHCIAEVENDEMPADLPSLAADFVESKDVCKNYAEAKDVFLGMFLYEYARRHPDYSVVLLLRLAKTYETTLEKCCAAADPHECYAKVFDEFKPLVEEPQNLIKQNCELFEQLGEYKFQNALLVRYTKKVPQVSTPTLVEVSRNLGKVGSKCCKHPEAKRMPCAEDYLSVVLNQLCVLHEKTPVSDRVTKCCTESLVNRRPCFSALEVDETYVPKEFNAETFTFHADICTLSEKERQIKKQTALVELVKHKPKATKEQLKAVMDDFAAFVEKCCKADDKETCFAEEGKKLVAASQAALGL
In data set [5] the target is T1, Albumin. The data set can be described thus: Binding affinity to human serum albumin incubated for 18 hrs in presence of 40 uM bicalutamide by equilibrium dialysis method. The format is ADME. Particulars: isolated protein. (In general: In equilibrium dialysis only unbound substance equilibrates across the membrane.)
Data set [6] deals with T1, Albumin. Description: Binding affinity to human serum albumin incubated for 18 hrs in presence of 80 uM bicalutamide by equilibrium dialysis method. The format is ADME. Conditions: isolated protein.
In data set [7] the test system is Escherichia coli. Description: Antibacterial activity against Escherichia coli ATCC 25922 assessed as inhibition of bacterial growth incubated for 24 hrs in presence of warfarin by broth microdilution method. The format is functional.
In data set [8] the test system is Escherichia coli. The data set can be described thus: Antibacterial activity against Escherichia coli ATCC 25922 assessed as inhibition of bacterial growth at 0 to 8 ug/ml incubated for 24 hrs in presence of HSA by broth microdilution method. Type of data set: functional, organism-based. Particulars: dose 0-8 µg/ml.
Data set [9] relates to Escherichia coli. Description: Antibacterial activity against Escherichia coli ATCC 25922 assessed as inhibition of bacterial growth at 0.6 mM incubated for 24 hrs by broth microdilution method. The format is functional, organism-based.
For data set [10], the system named is Escherichia coli. Description: Ratio of MIC>90 against Escherichia coli ATCC 25922 in presence of HSA to MIC>90 against Escherichia coli ATCC 25922 in absence of HSA. Type of data set: functional.

Values after ≈ are worked out from the molar mass of the structure shown. Active and inactive are the calls of the source. The calls are words filed in the database; no cut-off is given here. A value given as a limit tells only on which side of the number the result lay.

In general, MIC90 refers to the lowest concentration that inhibits either 90% of growth or 90% of the strains tested, depending on the study.

Consider `Nc1nc(/C(=C/CC(=O)O)C(=O)N[C@@H]2C(=O)N3C(C(=O)O)=CCS[C@H]23)cs1` [CEFTIBUTEN], for which the fraction unbound in data set [1] is 0.35. As for `Cn1c(N)c(NC(=O)NCCN)c[n+]1CC1=C(C(=O)O)N2C(=O)[C@@H](NC(=O)/C(=N\OC(C)(C)C(=O)[O-])c3nsc(N)n3)[C@H]2SC1` [CEFTOLOZANE], the fraction unbound in data set [1] is 0.8.

On to `C=CC1=C(C(=O)O)N2C(=O)[C@@H](NC(=O)/C(=N\OCC(=O)O)c3csc(N)n3)[C@H]2SC1` [CEFIXIME], for which the fraction unbound in data set [1] was 0.35. As for `CO/N=C(\C(=O)N[C@@H]1C(=O)N2C(C(=O)O)=CCS[C@H]12)c1csc(N)n1` [CEFTIZOXIME], the fraction unbound in data set [1] is 0.7. The same measure, in the same setting: in the case of `CC1=C(C(=O)O)N2C(=O)[C@@H](NC(=O)[C@H](N)c3ccc(O)cc3)[C@H]2SC1` [CEFADROXIL] it was 0.8. Take `CO/N=C(\C(=O)N[C@@H]1C(=O)N2C(C(=O)O)=C(/C=C\c3scnc3C)CS[C@H]12)c1csc(N)n1` [CEFDITOREN]: the fraction unbound in data set [1] was 0.12. Turning to `CO/N=C(\C(=O)N[C@@H]1C(=O)N2C(C(=O)O)=C(CSc3nc(=O)c(=O)[nH]n3C)CS[C@H]12)c1csc(N)n1` [CEFTRIAXONE], the fraction unbound in data set [1] was 0.05. Moreover, the values for the MIC90 in data set [2], in data set [3] and in [7] were at most 0.12 µg/mL, 1 µg/mL and 0.25 µg/mL, respectively. Moreover, the K is on record as 8.5 10^4/M in [4], 5.01 10^4/M in data set [5] and 1.3 10^4/M in data set [6]. As to `N[C@@H](C(=O)N[C@@H]1C(=O)N2C(C(=O)O)=C(Cl)CS[C@H]12)c1ccccc1` [CEFACLOR ANHYDROUS], in data set [1], the fraction unbound was 0.75. Same read-out and setting: as for `CO/N=C(\C(=O)N[C@@H]1C(=O)N2C(C(=O)[O-])=C(C[n+]3cccc4c3CCC4)CS[C@H]12)c1csc(N)n1` [CEFPIROME], the figure is 0.9; as for `COCC1=C(C(=O)O)N2C(=O)[C@@H](NC(=O)/C(=N\OC)c3csc(N)n3)[C@H]2SC1` [CEFPODOXIME], 0.17.

`Nc1nc(/C(=N/O)C(=O)N[C@@H]2C(=O)N3C(C(=O)O)=C(/C=C4\CCN([C@@H]5CCNC5)C4=O)CS[C@H]23)ns1` [CEFTOBIPROLE]: the fraction unbound in data set [1] is 0.84. In the case of `CO[C@@]1(NC(=O)C2SC(=C(C(N)=O)C(=O)O)S2)C(=O)N2C(C(=O)O)=C(CSc3nnnn3C)CS[C@@H]21` (some centres undefined) [CEFOTETAN], the outcome in data set [8] was inactive. The fraction unbound in data set [1] was 0.12. As to `CCCCC1C(=O)N(c2ccccc2)N(c2ccccc2)C1=O`, the result in data set [9] was inactive.

As to `CO/N=C(\C(=O)N[C@@H]1C(=O)N2C(C(=O)O)=C(COC(C)=O)CS[C@H]12)c1csc(N)n1` [CEFOTAXIME], in data set [1], the fraction unbound is 0.5.

With `CN1C(=O)CN=C(c2ccccc2)c2cc(Cl)ccc21`, the outcome in [9] was inactive. For the molecule `CC(C)(O/N=C(\C(=O)N[C@@H]1C(=O)N2C(C(=O)[O-])=C(C[n+]3ccccc3)CS[C@H]12)c1csc(N)n1)C(=O)O` [CEFTAZIDIME], in data set [1], the fraction unbound is 0.91. Same read-out and setting: in the case of `CO/N=C(\C(=O)N[C@@H]1C(=O)N2C(C(=O)[O-])=C(C[N+]3(C)CCCC3)CS[C@H]12)c1csc(N)n1` it was 0.8; in that of `CC=CC1=C(C(=O)O)N2C(=O)[C@@H](NC(=O)[C@H](N)c3ccc(O)cc3)[C@H]2SC1` [CEFPROZIL], 0.64.

On to `C=CC1=C(C(=O)O)N2C(=O)[C@@H](NC(=O)/C(=N\O)c3csc(N)n3)[C@H]2SC1`, for which the fraction unbound in data set [1] is 0.3.

As for `CO[C@@]1(NC(=O)Cc2cccs2)C(=O)N2C(C(=O)O)=C(COC(N)=O)CS[C@@H]21` [CEFOXITIN], in data set [1], the fraction unbound is 0.21. With `CCO/N=C(\C(=O)N[C@@H]1C(=O)N2C(C(=O)[O-])=C(Sc3nc(-c4cc[n+](C)cc4)cs3)CS[C@H]12)c1nsc(N)n1` [CEFTAROLINE], in data set [1], the fraction unbound was 0.8. With `CC(O)(CS(=O)(=O)c1ccc(F)cc1)C(=O)Nc1ccc(C#N)c(C(F)(F)F)c1` (centres undefined), the outcome in [9] was inactive. Turning to `Cc1nnc(SCC2=C(C(=O)O)N3C(=O)[C@@H](NC(=O)Cn4cnnn4)[C@H]3SC2)s1` [CEFAZOLIN], the fraction unbound in data set [1] was 0.2. The MIC90 amounted to 2 µg/mL (≈ 4.4 µM) in data set [2] and 4 µg/mL in data set [3]. Further, the Ratio in [10] was determined as 2. Regarding `CO/N=C(\C(=O)N[C@@H]1C(=O)N2C(C(=O)O)=C(COC(N)=O)CS[C@H]12)c1ccco1` [CEFUROXIME], in data set [1], the fraction unbound is 0.5.

These data come from ChEMBL document CHEMBL5576123, “Interaction of Cephalosporins with Human Serum Albumin: A Structural Study” (J Med Chem, 2024).
